Test [1] deals with differentiated SH-SY5Y neuronal cells exposed to Kgp and/or RgpB. Kind of test: gingipain induced toxicity in differentiated SH-SY5Y neuronal cells. The class given is cell-based. To be noted: 100 nM Kgp and/or RgpB, 24 hours, microscopy. Here is the method: SH-SY5Y neuroblastoma cells were cultured and differentiated in the presence of 5 uM retinoic acid based on established methods. Differentiation into neuronal cells was verified by observation of neurite outgrowth. The differentiated cells were exposed to 100 nM Kgp and/or RgpB for 24 hours, in the presence or absence of gingipain inhibitors. Results were recorded using a digital microscope camera.

Test [2] concerns P. gingivalis. To be noted: cited from earlier work.
For test [3], the system named is Rgp. To be noted: cited from earlier work.

“Also recorded” adds a separate entry of the source.

Regarding `CN(C)C(=O)[C@H](CCCCN)NC(=O)C(=O)[C@H](CCCN=C(N)N)NC(=O)[C@H](CCCCN)NC(=O)OCc1ccccc1` [Kyt-1], in test [1], the “protection against gingipain induced toxicity / cell death” value is on record as “can protect neurons; also recorded: effective but less so”. As for `CN(NC(=O)CC[C@H](NC(=O)OCc1ccccc1)C(=O)N[C@@H](CCCCN)C(=O)C(=O)NCc1ccccc1)c1ccccc1` [Kyt-36], the “protection against gingipain induced toxicity / cell death” value is recorded as “can protect neurons; also recorded: more protective than Rgp inhibitors; also recorded: largely blocks gingipain induced toxicity” in test [1] and “prevented gingipain induced neurodegeneration” in test [1] (listed as Kyt 36).

Regarding `CC(C)C[C@H](NC(=O)[C@@H](O)[C@H](N)Cc1ccccc1)C(=O)O` [bestatin], the “growth inhibition of P. gingivalis” value in test [2] is “selectively inhibits growth”. Take `NC(=O)CI` [iodoacetamide]: the results for the “protection against gingipain induced toxicity / cell death” value in test [1] and in test [1] (listed as Iodoacetamide) were “blocks toxicity” and “prevents this effect”, respectively. For “phenylalanyl-ureido-citrullinyl-valyl-cycloarginal [FA-70C1]”, the Rgp inhibition result in test [3] is “potent Rgp inhibitor”. Further, the “growth inhibition of P. gingivalis” value in test [2] is recorded as “exhibits growth-inhibitory activity”.

The record behind these values is US20170014468A1, “METHODS OF USE FOR THERAPEUTICS TARGETING THE PATHOGEN PORPHYROMONAS GINGIVALIS” (Cortexyme, Inc., priority 2014, published 2017).
